According to PubChem BioAssay (NCI):
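Method: 48-hour compound exposure of cells in 96-well plates, five concentrations, linear interpolation of endpoints. TGI: concentration producing complete growth inhibition.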

Tests used:
Experiment in all cases: inhibition of tumour cell growth, NCI panel, 48 h
COLO 205 colon = tested on: COLO 205 colon
HCT-15 colon = tested on: HCT-15 colon
HS 578T breast = tested on: HS 578T breast
LOX IMVI melanoma = tested on: LOX IMVI melanoma
MCF7 breast = tested on: MCF7 breast
MDA-MB-231 breast = tested on: MDA-MB-231 breast
NCI-H226 lung = tested on: NCI-H226 lung
NCI-H460 lung = tested on: NCI-H460 lung
OVCAR-4 ovarian = tested on: OVCAR-4 ovarian
RXF 393 renal = tested on: RXF 393 renal
SK-MEL-2 melanoma = tested on: SK-MEL-2 melanoma
SK-MEL-5 melanoma = tested on: SK-MEL-5 melanoma
SR leukemia = tested on: SR leukemia
TK-10 renal = tested on: TK-10 renal
UACC-257 melanoma = tested on: UACC-257 melanoma

SMILES	TGI (COLO 205 colon) [µM]	TGI (HCT-15 colon) [µM]	TGI (HS 578T breast) [µM]	TGI (LOX IMVI melanoma) [µM]	TGI (MCF7 breast) [µM]	TGI (MDA-MB-231 breast) [µM]	TGI (NCI-H226 lung) [µM]	TGI (NCI-H460 lung) [µM]	TGI (OVCAR-4 ovarian) [µM]	TGI (RXF 393 renal) [µM]	TGI (SK-MEL-2 melanoma) [µM]	TGI (SK-MEL-5 melanoma) [µM]	TGI (SR leukemia) [µM]	TGI (TK-10 renal) [µM]	TGI (UACC-257 melanoma) [µM]
COC(=O)c1c(O)ccc2c1c1c(n2Cc2ccc(Cl)cc2Cl)C(=O)c2ccccc2C1	> 100	> 100	> 100	61.9	89.9	> 100	73.2	> 100	70.6	78.8	> 100	> 100	> 100	> 100	> 100
COc1ccc(C(OCC2OC(n3cc(C)c(=O)[nH]c3=O)CC2n2cc(Cn3cc(Br)c(=O)[nH]c3=O)nn2)(c2ccccc2)c2ccccc2)cc1 (stereo not drawn)	> 100	> 100	> 100	> 100	> 100	> 100	> 100	–	> 100	> 100	> 100	> 100	> 100	> 100	> 100
O=c1c2c(-c3ccccc3)onc2n(-c2ccccc2)c(=O)n1-c1ccccc1	> 100	39.1	89.8	> 100	> 100	> 100	71	36.8	> 100	> 100	25	> 100	> 100	58.2	53
CC(C)(C)C(=O)OC(N)/C=C/c1ccccc1 (stereo not drawn)	> 100	> 100	> 100	–	> 100	> 100	> 100	> 100	> 100	> 100	> 100	> 100	> 100	–	> 100
CCCCCC(/C=C/C1CCC(=O)C1CC#C[Si](C)(C)C)OCc1ccccc1 (stereo not drawn)	39.3	30.1	39.6	35.8	44	54.4	> 94.7	30.7	> 71.8	30.1	35	27.9	> 57.4	60.5	39.6
C[C@@H]1CCC2[C@@H](C)[C@@H](OCCO[C@H]3OC4O[C@@]5(C)CCC6[C@H](C)CCC([C@H]3C)[C@@]46OO5)OC3O[C@@]4(C)CCC1[C@]32OO4 (stereo partly drawn)	0.304	> 100	> 100	> 40.5	> 42.3	> 66.2	> 100	> 100	> 100	> 100	6.06	> 39.8	> 100	> 100	> 100
C[C@@]12CCC3C1C=C1C(=O)c4cc(O)ccc4C(=O)[C@]1(O2)[C@@]3(C)C=O	19.5	11.5	75	11.2	11.6	19.3	44.5	10.6	15.7	14.1	20.2	16.1	5.89	21.7	18.7
COc1cccc2c1C(=O)c1c(O)c3c(c(O)c1C2=O)C[C@@](O)(C(=O)CO)C[C@@H]3OC1CC(N)C(OC)C(C)O1 (stereo partly drawn)	1.94	13.2	1.14	0.181	0.41	7.01	0.47	0.217	9.67	0.825	0.407	0.189	0.364	36.6	1.34
O=C(O)CCN(CCC(=O)O)c1ccc(/C=C2\SC(=S)NC2=O)cc1	> 100	> 100	> 100	> 100	> 100	> 100	> 100	> 100	> 100	> 100	> 100	> 100	> 100	> 100	> 100
CC1(C)OC(=C(C#N)C#N)C(C#N)=C1/C=C/c1ccncc1	3.27	3.79	17.9	3.51	4.28	4.36	4.65	22.4	8.91	5.07	6.44	14.4	4.74	4.12	8.27
COc1ccc(C(=O)/C=C/c2ccncc2)cc1OC	29.1	28.7	36.7	3.05	13.4	24.3	30.6	–	23.2	25.7	30.8	30.7	> 100	30	25.5
CC(C)C1=C(Cc2ccccc2)C(=O)O/C1=C\c1cc(Cl)c(O)c(Cl)c1	35.3	39.7	67.7	34.8	83.4	33.8	39.5	41.2	30.1	30.5	–	34.5	66.8	55.1	32.2
CCOC(=O)C1=C(N)Oc2ccc(Br)cc2C1C(C#N)C(=O)OCC (stereo not drawn)	42.3	40.9	61	33.1	89.4	55.9	35.3	> 100	44.8	22	39.1	42.6	> 100	36.2	61.7
Cc1ccc(-c2c3c(n(C4OC(CO)C(O)C(O)C4O)c(=S)c2C#N)CC(C)(C)CC3=O)cc1 (stereo not drawn)	–	> 100	> 100	> 100	> 100	> 100	> 100	> 100	> 100	> 100	> 100	> 100	> 100	> 100	> 100
Cc1cn(CCCCCOC(=O)NC(CCCN=C(N)N)C(=O)O)c(=O)[nH]c1=O (stereo not drawn)	63.2	> 100	71.9	> 100	> 100	> 100	> 100	> 100	> 100	> 100	> 100	–	30.8	> 100	> 100
